Laboratory results as given in patent US12612386B2, “Heteroaryl-triazole compounds as pesticides” (Bayer Aktiengesellschaft, priority 2020, dated 2026).

Key:
Assay type in all cases: in vivo
[1] = tested on: larvae of the southern green stink bug (Nezara viridula); assay: whole plant or invertebrate; details: 96 h
Method: Nezara viridula—Spray Test
(§1) • Solvent: 78.0 parts by weight of acetone • 1.5 parts by weight of dimethylformamide • Emulsifier: alkylarylpolyglycol ether
(§2) To produce a suitable preparation of active compound, 1 part by weight of active compound is mixed with the stated amount of solvent, and the concentrate is diluted with water, containing an emulsifier concentration of 1000 ppm, to the desired concentration. Further test concentrations are prepared by dilution with emulsifier containing water.
Barley plants (Hordeum vulgare) are sprayed with a test solution containing the desired concentration of the active ingredient and are infested with larvae of the southern green stink bug (Nezara viridula).
After 4 days mortality in % is determined. 100% means all the stink bugs have been killed; 0% means none of the stink bugs have been killed.

[2] = tested on: brown planthopper (Nilaparvata lugens); assay: Nilaparvata lugens spray test; details: 96 h
Method: Nilaparvata lugens—Spray Test
as §1
as §2, with “solvents” for “solvent,”, “and” for “and the concentrate”
Rice plants (Oryza sativa) are sprayed with a preparation of the active ingredient of the desired concentration and the plants are infested with the brown planthopper (Nilaparvata lugens).
After 4 days mortality in % is determined. 100% means all planthoppers have been killed and 0% means none of the planthoppers have been killed.

[3] = tested on: larvae of the banded cucumber beetle (Diabrotica balteata); assay: Diabrotica balteata spray test; details: 168 h, 100 g/ha (=32 μg/well), after 7 days, read-out: efficacy (seedling growth)
Method: Diabrotica balteata—Spray Test
as §1, §2
Soaked wheat seeds (Triticum aestivum) are placed in a multiple well plate filled with agar and some water and are incubated for 1 day to germinate (5 seeds per well). The germinated wheat seeds are sprayed with a test solution containing the desired concentration of the active ingredient. Afterwards each unit is infected with 10-20 larvae of the banded cucumber beetle (Diabrotica balteata).
After 7 days efficacy in % is determined. 100% means all the seedlings have grown up like in the untreated, uninfected control; 0% means none of the seedlings have grown.

[4] = tested on: green peach aphid (Myzus persicae); assay: Myzus persicae spray test (MYZUPE); details: 120 h, 100 g/ha, after 5 days
Method: Myzus persicae—Spray Test
• Solvent: 78.0 parts by weight acetone • 1.5 parts by weight dimethylformamide • Emulsifier: alkylarylpoly glycol ether
as §2, with “solvents” for “solvent,”, “and” for “and the concentrate”
Chinese cabbage (Brassica pekinensis) leaf disks infected with all instars of the green peach aphid (Myzus persicae), are sprayed with a preparation of the active ingredient of the desired concentration.
After 5 days mortality in % is determined. 100% means all aphids have been killed and 0% means none of the aphids have been killed.
Myzus persicae—Spray Test (MYZUPE)
(§3) • Solvent: 78.0 parts by weight acetone • 1.5 parts by weight dimethylformamide • Emulsifier: alkylarylpolyglycol ether
After the specified period of time, mortality in % is determined. 100% means all aphids have been killed and 0% means none of the aphids have been killed.

[5] = tested on: fall armyworm larvae (Spodoptera frugiperda); assay: whole plant or invertebrate; details: 168 h
Method: Spodoptera frugiperda—Spray Test
as §3
as §2, with “solvents” for “solvent,”, “and” for “and the concentrate”
Maize (Zea mays) leaf sections are sprayed with a preparation of the active ingredient of the desired concentration. Once dry, the leaf sections are infested with fall armyworm larvae (Spodoptera frugiperda).
After 7 days mortality in % is determined. 100% means all caterpillars have been killed and 0% means none of the caterpillars have been killed.
Spodoptera frugiperda—Spray Test (SPODFR)
After the specified period of time, mortality in % is determined. 100% means all caterpillars have been killed and 0% means none of the caterpillars have been killed.

SMILES	mortality at 100 g/ha [1]	mortality at 500 g/ha [1]	mortality at 500 g/ha [2]	pest or weed control at 32 µg/disc, 100 g/ha [3]	mortality at 100 g/ha [4]	mortality at 100 g/ha [5]
C[C@H](NC(=O)c1cc(C#N)cc(C#N)c1)c1ncnn1-c1cc(C(N)=O)ncn1 [I-126]	100%	100%	100%			
C[C@H](NC(=O)c1cc(C(F)(F)F)cc(C(F)(F)F)c1)c1ncnn1-c1cc(C(=O)N(C)C)ncn1 [I-129]		100%	100%	100%	100%	100%
CNC(=O)c1cc(-n2ncnc2[C@H](C)NC(=O)c2cc(OC(F)(F)F)cc(S(C)(=O)=O)c2)ncn1 [I-83]		100%	100%	100%	100%	100%
C[C@H](NC(=O)c1cc(C(F)(F)F)cc(S(C)(=O)=O)c1)c1ncnn1-c1cc(C(N)=O)ncn1 [I-78]		100%	100%	100%	90%	100%
C[C@H](NC(=O)c1cc(OC(F)(F)F)cc(C(C)(C)F)c1)c1ncnn1-c1cc(C#N)ncn1 [I-142]		100%	100%	100%	100%	100%
CNC(=O)c1cc(-n2ncnc2[C@H](C)NC(=O)c2cc(OC(F)F)cc(OC(F)F)c2)ncn1 [I-94]		100%	100%	100%	100%	100%
C[C@H](NC(=O)c1cc(C(F)F)cc(C(F)F)c1)c1ncnn1-c1cc(C(N)=O)ncn1 [I-133]			100%	100%	100%	100%
Cc1nc([C@H](C)NC(=O)c2cc(S(=O)(=O)C(F)(F)F)cc(S(=O)(=O)C(F)(F)F)c2)n(-c2cc(C#N)ncn2)n1 [I-29]			100%	100%		100%
CNC(=O)c1nccc(-n2ncnc2[C@H](C)NC(=O)c2cc(OC(F)(F)F)cc(OC(F)(F)F)c2)n1 [I-116]	100%	100%	100%	100%	100%	100%
C[C@H](NC(=O)c1cccc(C(F)(F)F)c1)c1ncnn1-c1cc(C(N)=O)ncn1 [I-92]		100%	100%	100%	100%	100%
CNC(=O)c1cc(-n2ncnc2[C@H](C)NC(=O)c2cc(Cl)cc(S(C)(=O)=O)c2)ncn1 [I-60]		100%	100%	100%	90%	
CNC(=O)c1cc(-n2ncnc2[C@H](C)NC(=O)c2cc(C(F)(F)F)cc(S(C)(=O)=O)c2)ncn1 [I-81]		100%	100%	100%	100%	100%
C[C@H](NC(=O)c1cc(Cl)cc(C#N)c1)c1ncnn1-c1cc(C(N)=O)ncn1 [I-125]	100%	100%	100%	100%	70%	100%
C[C@H](NC(=O)c1cc(F)cc(C#N)c1)c1ncnn1-c1cc(C(N)=O)ncn1 [I-77]		100%	100%	100%	100%	
C[C@H](NC(=O)c1cc(Cl)cc(S(=O)(=O)C(F)F)c1)c1ncnn1-c1cc(C(N)=O)ncn1 [I-118]	100%	100%	100%	100%	90%	100%
Cc1nc([C@H](C)NC(=O)c2cccc(OC(F)(F)F)c2)n(-c2cc(C(N)=O)ncn2)n1 [I-101]		100%	100%	100%	90%	100%
C[C@H](NC(=O)c1cc(C#N)cc(OC(F)(F)F)c1)c1ncnn1-c1cc(C(N)=O)ncn1 [I-121]	100%	100%	100%	100%	90%	100%
C[C@H](NC(=O)c1cc(OC(F)(F)F)cc(S(C)(=O)=O)c1)c1ncnn1-c1cc(C(N)=O)ncn1 [I-82]		100%	100%	100%	90%	100%
C[C@H](NC(=O)c1cc(OC(F)(F)F)cc(S(C)(=O)=O)c1)c1nc(C2CC2)nn1-c1cc(C(=O)N(C)C)ncn1 [I-154]		100%	100%		90%	100%
Cc1nc([C@H](C)NC(=O)c2cc(OC(F)(F)F)cc(S(C)(=O)=O)c2)n(-c2cc(C(N)=O)ncn2)n1 [I-32]	90%	100%	90%		90%	100%
Cc1nc([C@H](C)NC(=O)c2cc(C(F)(F)F)cc(C(F)(F)F)c2)n(-c2cc(C(=O)N(C)C)ncn2)n1 [I-130]		100%	100%	100%		100%
Cc1nc([C@H](C)NC(=O)c2cc(C#N)cc(C#N)c2)n(-c2cc(C(N)=O)ncn2)n1 [I-128]	100%	100%	100%	100%		
C[C@H](NC(=O)c1cc(C(F)F)cc(C(F)F)c1)c1ncnn1-c1cc(C(=O)N(C)C)ncn1 [I-139]		100%	100%	100%	100%	
Cc1nc([C@H](C)NC(=O)c2cc(Cl)cc(S(C)(=O)=O)c2)n(-c2cc(C(N)=O)ncn2)n1 [I-61]		100%	90%			
C[C@H](NC(=O)c1cc(Cl)cc(S(C)(=O)=O)c1)c1ncnn1-c1cc(C(N)=O)ncn1 [I-59]		100%	100%	100%	90%	
CNC(=O)c1cc(-n2ncnc2[C@H](C)NC(=O)c2cc(Br)cc(OC(F)(F)C(F)F)c2)ncn1 [I-122]		100%	100%	100%		100%
CNC(=O)c1cc(-n2ncnc2[C@H](C)NC(=O)c2cc(C(F)F)cc(C(F)F)c2)ncn1 [I-134]			100%	100%	90%	100%
CC(C)N(C)C(=O)c1nccc(-n2ncnc2[C@H](C)NC(=O)c2cc(OC(F)(F)F)cc(OC(F)(F)F)c2)n1 [I-115]			90%	80%	90%	100%
Cc1nc([C@H](C)NC(=O)c2cc(C(F)(F)F)cc(S(C)(=O)=O)c2)n(-c2cc(C#N)ncn2)n1 [I-23]		100%	100%	100%		
C[C@H](NC(=O)c1cccc(F)c1)c1ncnn1-c1cc(C(N)=O)ncn1 [I-44]	100%	100%	100%	100%		
